Assay results published in PMC8041433 (Environmental Health Perspectives, 2021).
Values joined by “and” are separate entries in the source; they are usually repeats but may differ in a detail not shown here. Identical values can stand only once. Counter-ions that a name gives are not always drawn. Like-named read-outs stand apart in the source and are kept apart here.

Tests used:
recombinant human AChE [1] = molecular target: T1, recombinant human AChE (Homo sapiens, UniProt P22303); experiment: biochemical
[2] = molecular target: AChE in SH-SY5Y spheroids (Homo sapiens, UniProt P22303); experiment: cell-based; details: potency (IC50)
recombinant human AChE [3] = molecular target: T1, recombinant human AChE; experiment: biochemical; remark: listed apart in the source
AChE in SH-SY5Y cells = AChE in SH-SY5Y cells (Homo sapiens, UniProt P22303); experiment: cell-based
recombinant human AChE [4] = molecular target: T1, recombinant human AChE
[5] = molecular target: AChE in neural stem cell spheroids (Homo sapiens, UniProt P22303); experiment: cell-based; details: for IC50: potency (IC50)
[6] = molecular target: AChE in neural stem cells (Homo sapiens, UniProt P22303); experiment: cell-based
recombinant human AChE [7] = molecular target: T1, recombinant human AChE; experiment: biochemical; type: biochemical; details: for AC50: AC50 (uM)
recombinant human AChE [8] = molecular target: T1, recombinant human AChE; experiment: biochemical; remark: listed apart in the source
[9] = potency (IC50), Enzyme with microsomes
[10] = potency (IC50), SH-SY5Y cells monolayer
[11] = Neural stem cell spheroid (24 h)
[12] = Neural stem cell spheroid (48 h)
Throughout, for IR or R: key: Reversible (R); Irreversible (IR); ND, not detected in enzyme-based AChE inhibition assay from current study.

Sequence of AChE in SH-SY5Y spheroids (P22303 32-614): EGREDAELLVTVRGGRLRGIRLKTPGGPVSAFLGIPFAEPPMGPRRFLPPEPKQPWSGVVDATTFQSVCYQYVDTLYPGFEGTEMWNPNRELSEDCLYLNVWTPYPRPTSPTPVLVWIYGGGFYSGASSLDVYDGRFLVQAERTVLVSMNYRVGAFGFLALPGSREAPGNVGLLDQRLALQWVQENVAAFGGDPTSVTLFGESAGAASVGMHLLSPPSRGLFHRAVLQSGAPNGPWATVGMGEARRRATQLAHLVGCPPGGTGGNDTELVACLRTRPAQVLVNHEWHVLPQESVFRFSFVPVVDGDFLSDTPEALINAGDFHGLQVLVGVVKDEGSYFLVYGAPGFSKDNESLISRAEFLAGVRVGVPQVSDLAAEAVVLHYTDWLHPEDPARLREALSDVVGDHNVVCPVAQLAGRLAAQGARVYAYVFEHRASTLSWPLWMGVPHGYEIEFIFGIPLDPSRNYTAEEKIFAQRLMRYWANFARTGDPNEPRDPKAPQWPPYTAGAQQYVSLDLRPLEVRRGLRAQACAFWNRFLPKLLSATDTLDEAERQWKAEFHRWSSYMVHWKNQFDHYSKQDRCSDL
T1 sequence (P22303 32-614): as above
Sequence of AChE in neural stem cells (P22303 32-614): as above
Sequence of AChE in neural stem cell spheroids (P22303 32-614): as above
Sequence of AChE in SH-SY5Y cells (P22303 32-614): as above

SMILES	IC50 (recombinant human AChE [1])	IC50 ([2]; SH-SY5Y spheroids (24 h))	IC50 ([2]; SH-SY5Y spheroids (48 h))	IC50 (recombinant human AChE [3]; [9])	CC-v2 (curve classes) (AChE in SH-SY5Y cells)	IC50 (AChE in SH-SY5Y cells; IC50 (uM))	IC50 (AChE in SH-SY5Y cells; [10])	CC-v2 (curve classes) (recombinant human AChE [4])	IC50 [5, 11]	IC50 [5, 12]	IC50 [6]	AC50 (recombinant human AChE [7])	CC-v2 (curve classes) (recombinant human AChE [8])	IC50 (recombinant human AChE [8]; potency (IC50), Enzyme)	Efficacy (recombinant human AChE [4])	Efficacy (recombinant human AChE [8])	IR or R (recombinant human AChE [7])	further results
CNC(=O)O/N=C/C(C)(C)[S+](C)[O-] (centres unmarked) [Aldicarb sulfoxide]	0.78 ± 0.22 µM	0.46 ± 0.08 µM	0.56 µM	0.68 ± 0.09 µM	-1.1	0.354 µM and 0.322 µM and 0.397 µM and 0.287 µM	0.67 ± 0.04 µM	-1.1	0.24 ± 0.03 µM	0.27 ± 0.17 µM	0.34 ± 0.04 µM	498 nM and 789 nM and 885 nM and 993 nM and 1.11 µM and 559 nM (2×) and 198 nM and 627 nM	-1.1	0.41 ± 0.02 µM	–	–	–	fold more potent than aldicarb (recombinant human AChE [8]): 15 fold; IC50 (recombinant human AChE [8]; IC50): 0.61 µM
CNC(=O)Oc1ccc(N(C)C)c(C)c1 [Aminocarb]	9.57 ± 0.62 µM	12.3 ± 9.41 µM	6.85 ± 3.73 µM	8.21 ± 0.55 µM	-1.1	5.64 µM and 7.1 µM and 6.33 µM	5 ± 0.57 µM	-2.1	25.7 ± 7.15 µM	29.1 µM	11.7 ± 2.1 µM	17.7 µM and 22.2 µM and 12.5 µM and 28 µM and 25 µM and 7.03 µM and 11.1 µM and 7.89 µM	-1.1	7.92 ± 0.91 µM	-71.886	-98.887	–	–
CCN1CCCC1CNC(=O)c1cc(S(=O)(=O)CC)c(N)cc1OC (centres unmarked) [Amisulpride, reference compound]	24.3 µM	11.1 µM	28.6 µM	21.8 µM	–	21.9 µM and 34.7 µM and 38.9 µM	30.7 µM	-2.4	–	12.1 µM	17.2 µM	17.2 µM (2×) and 6.85 µM and 19.3 µM (2×) and 3.43 µM and 15.3 µM and 21.7 µM	-2.2	14.3 µM	-30.734	-62.971	R	IC50 (recombinant human AChE [3]; IC50 (uM)): 38.9 µM; potency (IC50), Neural stem cell spheroid (24 h) [5]: Inactive; IC50 (recombinant human AChE [8]; IC50 (uM)): 15.5 µM
COP(=O)(OC)SCn1c(=O)oc2cc(Cl)cnc21 [Azamethiphos]	3.81 ± 0.25 µM	4.05 ± 2.65 µM	3.3 ± 0.59 µM	6.34 ± 1.18 µM	-1.1	3.56 µM and 3.17 µM	2.81 ± 0.32 µM	-2.1	1.82 ± 0.76 µM	3.08 ± 0.77 µM	4.79 ± 0.31 µM	11.1 µM and 15.7 µM and 14 µM and 39.5 µM and 35.2 µM and 17.7 µM and 7.03 µM and 7.89 µM and 9.93 µM	-1.1	1.91 ± 0.26 µM	-92.198	-98.261	–	–
CN1C(=O)COc2c(C(=O)NC3CN4CCC3CC4)cc(Cl)cc21 (centres unmarked) [Azasetron hydrochloride, reference compound]	8.98 ± 0.61 µM	9.64 µM	6.85 µM	8.97 µM	-2.1 and -2.2	38.9 µM and 34.7 µM and 17.4 µM	6.6 µM	4	16.5 µM	18.8 µM	6.88 µM	17.2 µM (2×) and 3.43 µM and 21.7 µM and 19.3 µM (2×) and 12.2 µM (2×) and 15.3 µM	-2.2	7.72 µM	0	-34.351	R	IC50 (recombinant human AChE [8]; IC50 (uM)): 30.9 µM
CN1CCCC(n2nc(Cc3ccc(Cl)cc3)c3ccccc3c2=O)CC1 (centres unmarked) [Azelastine (hydrochloride), reference compound]	36.6 ± 10.3 µM	13.8 µM	19.3 µM	27.4 µM	–	–	20.9 µM	–	–	4.45 µM	22.6 µM	27.3 µM (3×) and 24.3 µM (2×) and 30.6 µM (2×)	–	25.4 µM	–	–	R	potency (IC50), Neural stem cell spheroid (24 h) [5]: Inactive
CCOP(=S)(OCC)SCn1nnc2ccccc2c1=O [Azinphos-ethyl]	22.5 ± 4.21 µM	25.2 µM	12 µM	2.14 µM	-1.1	12.6 µM and 11.2 µM and 15.9 µM	10.9 µM	-1.1	2.23 µM	4.36 µM	4.79 µM	49.8 µM (2×) and 55.9 µM (2×) and 70.3 µM and 39.5 µM and 44.4 µM	-2.1	42.8 µM	-98.316	-105.247	–	–
COc1ccc(OC(F)(F)F)cc1CN[C@H]1CCCN[C@H]1c1ccccc1 [CP-122721, reference compound]	–	–	–	–	4	–	–	4	–	–	–	–	4	–	0	0	–	potency (IC50), Enzyme-based assay with heat-inactivated microsomes (recombinant human AChE [1]): Inactive; potency (IC50), SH-SY5Y cells monolayer (AChE in SH-SY5Y cells): Inactive; potency (IC50), Enzyme with microsomes (recombinant human AChE [4]): Inactive; potency (IC50), Enzyme (recombinant human AChE [8]): Inactive
[H]/N=C(\N/C(=N/[H])NCCCCCCNC(=N)NC(=N)Nc1ccc(Cl)cc1)Nc1ccc(Cl)cc1 [Chlorhexidine diacetate, reference compound]	–	36.1 µM	41 µM	–	-2.1	56.1 µM and 70.6 µM	70.9 µM	4	8.31 µM	9.21 µM	32.5 µM	78.5 µM	-2.1	54.6 µM	0	-106.259	R	potency (IC50), Enzyme-based assay with heat-inactivated microsomes (recombinant human AChE [1]): Inactive; potency (IC50), Enzyme with microsomes (recombinant human AChE [4]): Inactive; IC50 (recombinant human AChE [8]; IC50 (uM)): 50 µM
CCOP(=S)(OCC)Oc1ccc2c(C)c(Cl)c(=O)oc2c1 [Coumaphos]	–	27.1 µM	20.6 µM	5.51 µM	4 and -1.1 and -2.1	12.6 µM and 22.7 µM and 22.4 µM and 28.6 µM and 17.8 µM and 12.8 µM	–	–	21.1 µM	21.4 µM	22.6 µM	24.3 µM and 27.3 µM	4 and -2.2 and -2.1	–	–	–	–	potency (IC50), Enzyme-based assay with heat-inactivated microsomes (recombinant human AChE [1]): Inactive; potency (IC50), SH-SY5Y cells monolayer (AChE in SH-SY5Y cells): Inactive; AChE inhibition (result in words) (recombinant human AChE [8]): did not show effects; potency (IC50), Enzyme (recombinant human AChE [8]): Inactive
CCOP(=S)(OCC)Oc1cc(C)nc(C(C)C)n1 [Diazinon]	–	19 ± 11.8 µM	20.1 ± 1.36 µM	22.6 ± 1.52 µM	4 and -2.1 and -1.1	–	11.3 ± 1.44 µM	–	0.04 ± 0.01 µM	0.09 ± 0.02 µM	0.41 ± 0.11 µM	6.85 µM and 30.6 µM and 10.9 µM and 24.3 µM	–	19.4 ± 2.22 µM	–	–	–	potency (IC50), Enzyme-based assay with heat-inactivated microsomes (recombinant human AChE [1]): Inactive; reversibility of AChE inhibition (result in words) (recombinant human AChE [7]): irreversibility
CCCCOc1ccc(C(=O)CCN2CCCCC2)cc1 [Dyclonine HCl, reference compound]	26.8 ± 10.1 µM	17.4 ± 3.65 µM	23.5 ± 3.24 µM	31 ± 6.49 µM	–	–	20.2 ± 2.57 µM	–	16.3 ± 7.64 µM	9.18 ± 9.47 µM	21.8 ± 2.5 µM	27.3 µM (3×) and 30.6 µM (3×) and 19.3 µM and 34.3 µM	–	20.9 ± 1.36 µM	–	–	R	–
CCc1ccc(C(=O)C(C)CN2CCCCC2)cc1.Cl (centres unmarked) [Eperisone hydrochloride, reference compound]	40.1 ± 2.71 µM	–	–	38.7 µM	-2.1	15.5 µM	25.3 µM	4	15 µM	13.3 µM	19.3 µM	10.9 µM (3×) and 21.7 µM and 15.3 µM (2×) and 17.2 µM	-2.2	27.4 µM	0	-46.815	R	–
COP(N)(=S)Oc1ccccc1C(=O)OC(C)C (centres unmarked) [Isocarbophos]	55.9 µM	–	41.5 µM	8.21 µM	–	89.4 µM	54.3 ± 9.25 µM	-1.1	29.9 µM	23.1 µM	27.8 µM	–	4	–	-89.537	0	–	IC50 (recombinant human AChE [3]; IC50 (uM)): 2.83 µM; AChE inhibition (result in words) (recombinant human AChE [8]): did not show effects
CN1C[C@H](CNC(=O)OCc2ccccc2)C[C@@H]2c3cccc4c3c(cn4C)C[C@H]21 [Metergoline, reference compound]	20.9 ± 1.36 µM	1.73 ± 0.75 µM	4.17 ± 0.27 µM	21.7 µM	–	3.47 µM and 5.5 µM	4.85 µM	–	5.79 ± 1.63 µM	5.8 ± 1.64 µM	13.2 ± 0.85 µM	21.7 µM and 12.2 µM (3×) and 13.7 µM and 27.3 µM and 9.68 µM (2×) and 10.9 µM	–	5.46 ± 1.98 µM	–	–	–	–
CCOP(=S)(OCC)Oc1cnc2ccccc2n1 [Quinalphos]	36.8 ± 4.7 µM	29.4 µM	46.2 µM	1.77 µM	-2.1 and 4	35.6 µM	46.4 µM	–	1.64 µM	2.94 µM	7.48 µM	–	–	55.9 µM	–	–	–	AC50 (recombinant human AChE [7]; activity_60): 49.8 µM and 62.7 µM
CCOP(=S)(OCC)SCSC(C)(C)C [Terbufos]	–	2.19 µM	35.4 µM	4.27 µM	–	89.4 µM	–	-2.1	1.83 µM	2.75 µM	2.31 µM	–	4	–	–	0	–	potency (IC50), Enzyme-based assay with heat-inactivated microsomes (recombinant human AChE [1]): Inactive; IC50 (recombinant human AChE [3]; IC50 (uM)): 56.4 µM and 40.2 µM; potency (IC50), SH-SY5Y cells monolayer (AChE in SH-SY5Y cells): Inactive; AChE inhibition (result in words) (recombinant human AChE [8]): did not show effects; potency (IC50), Enzyme (recombinant human AChE [8]): Inactive
